This passage reports EC50 results from patent US11591341B2 (ALIGOS THERAPEUTICS, INC., priority 2019, dated 2023).

In this experiment the test system is HBV. The experiment is described as follows: HBV-DNA Antiviral Assay Using HepG2.117 Cells (intracellular HBV DNA by qPCR). The conditions noted are these: Hepatitis B virus, HepG2.117. The class given is cell-based, hepatitis B virus (genotype D). A digest of the protocol:
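HepG2.117 cells (genotype D HBV, Tet-off) were induced by doxycycline withdrawal and treated for 3 days with 9 concentrations in 4-fold dilution, 2% DMSO final. Intracellular HBV DNA was measured by qPCR against a standard curve, with ATPlite viability read in parallel. EC50, EC90 and CC50 came from fits against the DMSO control.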
(In general: Quantitative PCR measures a nucleic acid by following its amplification.)
For orientation: EC50 means the midpoint of the concentration-response curve. Low values mean an effect from little substance, high ones a need for much substance. In turn, `C[C@H](NC(=O)c1c2n(c(=O)n1-c1ccc(OC3CC3)cc1)CCN(C(=O)c1ccc(Br)c(Cl)c1)C2)c1ccc(OCC#N)cc1F` (stereo in doubt) [Example 343, 7-(4-bromo-3-chloro-benzoyl)-2-[4-(cyclopropoxy)phenyl]-3-oxo-N-[rac-(1S)-1-[4-(cyanomethoxy)-2-fluoro-phenyl]ethyl]-6,8-dihydro-5H-imidazo[1,5-a]pyrazine-1-carboxamide] yielded an EC50 of 100 to 500 nM.

In the case of `COc1ccc([C@H](C)NC(=O)c2c3n(c(=O)n2-c2ccc(-n4cccn4)cc2)CCN(C(=O)c2ccc(Br)c(Cl)c2)C3)cc1` [Example 442, 7-(4-bromo-3-chloro-benzoyl)-N-[(1S)-1-(4-methoxyphenyl)ethyl]-3-oxo-2-(4-pyrazol-1-ylphenyl)-6,8-dihydro-5H-imidazo[1,5-a]pyrazine-1-carboxamide], the EC50 lay within 100 to 500 nM.

With `COc1ccc(CNC(=O)c2c3n(c(=O)n2-c2ccc(OCC(F)(F)F)cc2)CCN(C(=O)c2ccc(Br)c(Cl)c2)C3)c(C)c1` [Example 246, 7-(4-bromo-3-chloro-benzoyl)-N-[(4-methoxy-2-methyl-phenyl)methyl]-3-oxo-2-[4-(2,2,2-trifluoroethoxy)phenyl]-6,8-dihydro-5H-imidazo[1,5-a]pyrazine-1-carboxamide], the EC50 was in the range of 100 to 500 nM.

For `CC[C@H](NC(=O)c1c2n(c(=O)n1-c1ccc(OC)cc1)CCN(C(=O)c1ccc(Br)c(Cl)c1)C2)c1ccccc1` (stereo in doubt) [Example 151, 7-(4-bromo-3-chloro-benzoyl)-2-(4-methoxyphenyl)-3-oxo-N-[rac-(1S)-1-phenylpropyl]-6,8-dihydro-5H-imidazo[1,5-a]pyrazine-1-carboxamide], the concentration giving a half-maximal response (EC50) lay in the range of 100 to 500 nM.

Take `O=C(NCc1cccc2[nH]cnc12)c1c2n(c(=O)n1-c1ccc(OCC(F)(F)F)cc1)CCN(C(=O)c1ccc(Br)c(Cl)c1)C2` [Example 368, N-(1H-benzimidazol-4-ylmethyl)-7-(4-bromo-3-chloro-benzoyl)-3-oxo-2-[4-(2,2,2-trifluoroethoxy)phenyl]-6,8-dihydro-5H-imidazo[1,5-a]pyrazine-1-carboxamide]: the 50% effective concentration (EC50) lay within 500 to 5000 nM.

`CS(=O)(=O)c1ccc(-n2c(C(=O)NCc3ccccc3)c3n(c2=O)CCN(C(=O)c2ccc(Br)c(Cl)c2)C3)cc1` [Example 45, N-benzyl-7-(4-bromo-3-chloro-benzoyl)-2-(4-methylsulfonylphenyl)-3-oxo-6,8-dihydro-5H-imidazo[1,5-a]pyrazine-1-carboxamide]: the concentration giving a half-maximal response (EC50) fell in the range of 500 to 5000 nM.

The compound `COc1cc(C#N)ccc1CNC(=O)c1c2n(c(=O)n1-c1ccc(OCC(F)(F)F)cc1)CCN(C(=O)c1ccc(Br)c(Cl)c1)C2` [Example 249, 7-(4-bromo-3-chloro-benzoyl)-N-[(4-cyano-2-methoxy-phenyl)methyl]-3-oxo-2-[4-(2,2,2-trifluoroethoxy)phenyl]-6,8-dihydro-5H-imidazo[1,5-a]pyrazine-1-carboxamide] gave a 50% effective concentration (EC50) of 100 to 500 nM.

Turning to `CC1(C)C(=O)Nc2ccc(-n3c(C(=O)NCc4ccccc4)c4n(c3=O)CCN(C(=O)c3ccc(Br)c(Cl)c3)C4)cc21` [Example 397, N-benzyl-7-(4-bromo-3-chloro-benozyl)-2-(3,3-dimethyl-2-oxo-indolin-5-yl)-3-oxo-6,8-dihydro-5H-imidazo[1,5-a]pyrazine-1-carboxamide], the concentration for a half-maximal effect (EC50) was 500 to 5000 nM.

As to `O=C(NCc1ccccc1)c1c2n(c(=O)n1-c1ccc(N3CCO[C@H](C(F)(F)F)C3)cc1)CCN(C(=O)c1ccc(Br)c(Cl)c1)C2` (racemic) [Example 417, N-benzyl-7-(4-bromo-3-chloro-benozyl)-3-oxo-2-[4-[rac-(2S)-2-(trifluoromethyl)morpholin-4-yl]phenyl]-6,8-dihydro-5H-imidazo[1,5-a]pyrazine-1-carboxamide], the EC50 lay within 100 to 500 nM.

`O=C(NCc1ccccc1)c1c2n(c(=O)n1-c1ccccc1)CCN(C(=O)c1ccc(Br)c(Cl)c1)C2` [Example 195, N-benzyl-7-(4-bromo-3-chloro-benzoyl)-3-oxo-2-phenyl-6,8-dihydro-5H-imidazo[1,5-a]pyrazine-1-carboxamide] displayed an EC50 of 500 to 5000 nM.

In the case of `O=C(NCc1cccc2nccnc12)c1c2n(c(=O)n1-c1ccc(OCC(F)(F)F)cc1)CCN(C(=O)c1ccc(Br)c(Cl)c1)C2` [Example 277, 7-(4-bromo-3-chloro-benzoyl)-3-oxo-N-(quinoxalin-5-ylmethyl)-2-[4-(2,22,- trifluoroethoxy)phenyl]-6,8-dihydro-5H-imidazo[1,5-a]pyrazine-1-carboxamide], the concentration for a half-maximal effect (EC50) is under 100 nM.

`COc1ccc(-n2c(C(=O)N[C@H]3CCc4cc(OC)ccc43)c3n(c2=O)CCN(C(=O)c2ccc(Br)c(Cl)c2)C3)cc1` (stereo in doubt) [Example 100, 7-(4-bromo-3-chloro-benzoyl)-2-(4-methoxyphenyl)-3-oxo-N-[rac-(1S)-5-methoxyindazin-1-yl]-6,8-dihydro-5H-imidazo[1,5-a]pyrazine-1-carboxamide] displayed a 50% effective concentration (EC50) of 100 to 500 nM.

Take `O=C(NC1(c2ccccc2)CC1)c1c2n(c(=O)n1-c1ccccc1)CCN(C(=O)c1ccc(Br)c(Cl)c1)C2` [Example 31, 7-(4-bromo-3-chloro-benzoyl)-3-oxo-2-phenyl-N-(1-phenylcyclopropyl)-6,8-dihydro-5H-imidazo[1,5-a]pyrazine-1-carboxamide]: the EC50 is over 5000 nM.

Turning to `COc1ccc(-n2c(C(=O)NCc3ccccc3)c3n(c2=O)CCN(C(=O)c2ccc(Cl)c(Cl)c2)C3)cc1C` [Example 124, N-benzyl-7-(3,4-dichlorobenzoyl)-2-(4-methoxy-3-methyl-phenyl)-3-oxo-6,8-dihydro-5H-imidazo[1,5-a]pyrazine-1-carboxamide], the EC50 fell in the range of 500 to 5000 nM.

As for `CC(C)(Oc1ccc(CNC(=O)c2c3n(c(=O)n2-c2ccc(OC4CC4)cc2)CCN(C(=O)c2ccc(Br)c(Cl)c2)C3)c(F)c1)C(N)=O` [Example 365, N-[[4-(2-amino-1,1-dimethyl-2-oxo-ethoxy)-2-fluoro-phenyl]methyl]-7-(4-bromo-3-chloro-benzoyl)-2-[4-(cyclopropoxy)phenyl]-3-oxo-6,8-dihydro-5H-imidazo[1,5-a]pyrazine-1-carboxamide], the concentration giving a half-maximal response (EC50) is under 100 nM.

Turning to `CC(C)(C)Oc1ccc(-n2c(C(=O)NCc3ccccc3)c3n(c2=O)CCN(C(=O)c2ccc(Br)c(Cl)c2)C3)cc1` [Example 396, N-benzyl-7-(4-bromo-3-chloro-benzoyl)-2-(4-tert-butoxyphenyl)-3-oxo-6,8-dihydro-5H-imidazo[1,5-a]pyrazine-1-carboxamide], the concentration giving a half-maximal response (EC50) lay in the range of 100 to 500 nM.

In the case of `CC(C)Oc1ccc(-n2c(C(=O)NCc3ccccc3)c3n(c2=O)CCN([C@H](c2ccc(Br)c(Cl)c2)C(F)(F)F)C3)cc1` (racemic) [Example 240, N-benzyl-2-(4-isopropoxyphenyl)-3-oxo-7-[rac-(1R)-1-(4-bromo-3-chloro-phenyl)-2,2,2-trifluoro-ethyl]-6,8-dihydro-5H-imidazo[1,5-a]pyrazine-1-carboxamide], the half-maximal effective concentration (EC50) was over 5000 nM.

For `C[C@H](Oc1ccc([C@@H](C)NC(=O)c2c3n(c(=O)n2-c2ccc(OCC(F)(F)F)cc2)CCN(C(=O)c2ccc(Br)c(Cl)c2)C3)c(F)c1)C(N)=O` (stereo in doubt) [Example 360, 7-(4-bromo-3-chloro-benzoyl)-3-oxo-N-[rac-(1R)-1-[2-fluoro-4-[rac-(1S)-2-amino-1-methyl-2-oxo-ethoxy]phenyl]ethyl]-2-[4-(2,2,2-trifluoroethoxy)phenyl]-6,8-dihydro-5H-imidazo[1,5-a]pyrazine-1-carboxamide], the EC50 was 500 to 5000 nM.

On to `COc1ccc(-n2c(C(=O)N[C@@H](C)c3ccccc3)c3n(c2=O)CCN(C(=O)c2ccc(Cl)c(Cl)c2)C3)cc1` (stereo in doubt) [Example 70, 7-(3,4-dichlorobenzoyl)-2-(4-methoxyphenyl)-3-oxo-N-[rac-(1S)-1-phenylethyl]-6,8-dihydro-5H-imidazo[1,5-a]pyrazine-1-carboxamide], for which the EC50 was 500 to 5000 nM.

Turning to `COc1cc(Cl)c(-n2c(C(=O)NCc3ccccc3)c3n(c2=O)CCN(C(=O)c2ccc(Cl)c(Cl)c2)C3)c(Cl)c1` [Example 96, N-benzyl-7-(3,4-dichlorobenzoyl)-2-(2,6-dichloro-4-methoxy-phenyl)-3-oxo-6,8-dihydro-5H-imidazo[1,5-a]pyrazine-1-carboxamide], the EC50 is over 5000 nM.

In the case of `CCS(=O)(=O)c1cccc(CNC(=O)c2c3n(c(=O)n2-c2ccc(OC(C)C)cc2)CCN(C(=O)c2ccc(Br)c(Cl)c2)C3)c1` [Example 186, 7-(4-bromo-3-chloro-benzoyl)-N-[(3-ethylsulfonylphenyl)methyl]-2-(4-isopropoxyphenyl)-3-oxo-6,8-dihydro-5H-imidazo[1,5-a]pyrazine-1-carboxamide], the half-maximal effective concentration (EC50) was in the range of 500 to 5000 nM.

Turning to `C[C@H]1Cn2c(c3n(c2=O)C[C@H](F)CN(Cc2ccccc2)C3=O)CN1C(=O)c1ccc(Br)c(Cl)c1` (stereo in doubt) [Example 372, 13-benzyl-4-(4-bromo-3-chlorobenzoyl)-11-fluoro-4,7,9,13-tetraazatricyclo[7.5.0.0^[2,7]]tetradec-1-ene-8,14-dione], the EC50 was 100 to 500 nM.

`CC1Cn2c(c(C(=O)NCc3ccccc3)n(-c3ccc(OC4CC4)cc3)c2=O)CN1C(=O)c1ccc(Br)c(Cl)c1` (racemic) [Example 301, rac-(6R)-N-benzyl-7-(4-bromo-3-chloro-benzoyl)-2-[4-(cyclopropoxy)phenyl]-6-methyl-3-oxo-6,8-dihydro-5H-imidazo[1,5-a]pyrazine-1-carboxamide]: the EC50 lay within 500 to 5000 nM.

Turning to `COc1ccc(-n2c(C(=O)NCc3ccc(C(C)C)cc3)c3n(c2=O)CCN(C(=O)c2ccc(Br)c(Cl)c2)C3)cc1` [Example 142, 7-(4-bromo-3-chloro-benzoyl)-N-[(4-isopropylphenyl)methyl]-2-(4-methoxyphenyl)-3-oxo-6,8-dihydro-5H-imidazo[1,5-a]pyrazine-1-carboxamide], the half-maximal effective concentration (EC50) lay within 100 to 500 nM.
